From patent publication US9844521B2, “Pharmaceutical composition comprising ginger extract or shogaol” (UNIVERSITY-INDUSTRY COOPERATION GROUP OF KYUNG HEE …, priority 2008, dated 2017)

Test system: rat primary mesencephalic dopaminergic cells
Assay: Protection of dopamine cells against 6-OHDA neurotoxicity (TH immunohistochemistry)
Format: cell-based
Conditions: 0.01 μM, 10 μM 6-OHDA for 18 hours; 6-OHDA group 34.00±5.77% of the control
Protocol: Female Sprague-Dawley rats (2-week old) were used, and shogaol was obtained from WAKO Company (Japan).
Fetal mesencephalon tissues of Sprague-Dawley rats […] were desquamated, and mechanically dissociated by using a forcept. The tissues were treated with trypsin and the number of cells was counted, and the cells were seeded on a cover slip coated with poly-L-lysine (PLL), and then proliferated in an incubator including 5% CO2 and 95% air at a temperature of 37 °C for 5 days. A fetal bovine serum (FBS)-free media was treated with 0.01 μM or 0.1 μM of shogaol after the shogaol was diluted, or the ginger extract (the ethanol extract, the hexane fraction, the ethyl acetate fraction, the butanolfraction, and the water fraction prepared according to Example 1) after the ginger extract was diluted. […]
Cells immobilized by using 4% PFA were washed with PBS and then, dehydrated with 1% hydrogen peroxide for 15 minutes. […] After the color-producing using DAB, a cover slip was separated and then mounted on a slide by using a gel mount and the number of cells was counted.
Cells were color-produced by immunohistochemistry in the same manner as Experimental Example 3-1, and the number of cells was counted and the results are shown in FIGS. 8 and 9.

CCCCC/C=C/C(=O)CCc1ccc(O)c(OC)c1 [shogaol, (E)-1-(4-hydroxy-3-methoxyphenyl)dec-4-en-3-one]
number of dopamine positive cells: 57.25±5.65%
